# Data reported in ChEMBL document CHEMBL1201862, “PubChem BioAssay data set” (2004).
# The source made the active and inactive calls.
# Tests used:
# Cytochrome P450 2D6 [1] = target: T1, Cytochrome P450 2D6 (Homo sapiens, UniProt P10635);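 also: CYP2D6 member of a cytochrome P450 panel assay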
# [2] = target: T2, Tyrosine-protein phosphatase non-receptor type 7 (Homo sapiens, UniProt P35236); type: functional
# T2 sequence (P35236 whole entry): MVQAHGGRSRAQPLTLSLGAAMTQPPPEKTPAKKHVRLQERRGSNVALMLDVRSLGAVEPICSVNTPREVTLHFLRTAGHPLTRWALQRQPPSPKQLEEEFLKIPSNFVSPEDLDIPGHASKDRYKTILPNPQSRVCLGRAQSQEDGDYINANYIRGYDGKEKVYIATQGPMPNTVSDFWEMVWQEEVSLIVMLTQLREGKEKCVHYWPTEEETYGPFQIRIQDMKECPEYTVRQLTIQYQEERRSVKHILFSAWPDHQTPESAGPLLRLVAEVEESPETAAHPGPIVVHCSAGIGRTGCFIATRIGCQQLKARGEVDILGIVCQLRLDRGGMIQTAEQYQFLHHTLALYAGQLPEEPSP
# [3] = target: T3, Dual specificity protein phosphatase 6 (Rattus norvegicus, UniProt Q64346); type: functional
# T3 sequence (Q64346 whole entry): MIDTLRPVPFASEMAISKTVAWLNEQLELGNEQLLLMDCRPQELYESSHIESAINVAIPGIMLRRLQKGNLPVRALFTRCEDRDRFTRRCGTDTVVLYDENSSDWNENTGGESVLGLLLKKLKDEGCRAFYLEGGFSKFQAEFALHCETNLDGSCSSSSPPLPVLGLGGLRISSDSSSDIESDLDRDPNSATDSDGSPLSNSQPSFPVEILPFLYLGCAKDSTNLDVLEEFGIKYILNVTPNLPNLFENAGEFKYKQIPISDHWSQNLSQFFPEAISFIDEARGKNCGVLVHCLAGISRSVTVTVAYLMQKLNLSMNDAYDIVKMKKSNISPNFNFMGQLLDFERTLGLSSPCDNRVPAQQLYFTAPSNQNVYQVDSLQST
# [4] = target: Glyceraldehyde-3-phosphate dehydrogenase (Homo sapiens, UniProt P04406)
# [5] = target: T3, Dual specificity protein phosphatase 6
# [6] = target: Voltage-gated inwardly rectifying potassium channel KCNH2 (Homo sapiens, UniProt Q12809); settings: Potency;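 also: confirmatory quantitative high-throughput screen measuring inhibition of hERG channel activity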
# Sequence of Voltage-gated inwardly rectifying potassium channel KCNH2 (Q12809 whole entry): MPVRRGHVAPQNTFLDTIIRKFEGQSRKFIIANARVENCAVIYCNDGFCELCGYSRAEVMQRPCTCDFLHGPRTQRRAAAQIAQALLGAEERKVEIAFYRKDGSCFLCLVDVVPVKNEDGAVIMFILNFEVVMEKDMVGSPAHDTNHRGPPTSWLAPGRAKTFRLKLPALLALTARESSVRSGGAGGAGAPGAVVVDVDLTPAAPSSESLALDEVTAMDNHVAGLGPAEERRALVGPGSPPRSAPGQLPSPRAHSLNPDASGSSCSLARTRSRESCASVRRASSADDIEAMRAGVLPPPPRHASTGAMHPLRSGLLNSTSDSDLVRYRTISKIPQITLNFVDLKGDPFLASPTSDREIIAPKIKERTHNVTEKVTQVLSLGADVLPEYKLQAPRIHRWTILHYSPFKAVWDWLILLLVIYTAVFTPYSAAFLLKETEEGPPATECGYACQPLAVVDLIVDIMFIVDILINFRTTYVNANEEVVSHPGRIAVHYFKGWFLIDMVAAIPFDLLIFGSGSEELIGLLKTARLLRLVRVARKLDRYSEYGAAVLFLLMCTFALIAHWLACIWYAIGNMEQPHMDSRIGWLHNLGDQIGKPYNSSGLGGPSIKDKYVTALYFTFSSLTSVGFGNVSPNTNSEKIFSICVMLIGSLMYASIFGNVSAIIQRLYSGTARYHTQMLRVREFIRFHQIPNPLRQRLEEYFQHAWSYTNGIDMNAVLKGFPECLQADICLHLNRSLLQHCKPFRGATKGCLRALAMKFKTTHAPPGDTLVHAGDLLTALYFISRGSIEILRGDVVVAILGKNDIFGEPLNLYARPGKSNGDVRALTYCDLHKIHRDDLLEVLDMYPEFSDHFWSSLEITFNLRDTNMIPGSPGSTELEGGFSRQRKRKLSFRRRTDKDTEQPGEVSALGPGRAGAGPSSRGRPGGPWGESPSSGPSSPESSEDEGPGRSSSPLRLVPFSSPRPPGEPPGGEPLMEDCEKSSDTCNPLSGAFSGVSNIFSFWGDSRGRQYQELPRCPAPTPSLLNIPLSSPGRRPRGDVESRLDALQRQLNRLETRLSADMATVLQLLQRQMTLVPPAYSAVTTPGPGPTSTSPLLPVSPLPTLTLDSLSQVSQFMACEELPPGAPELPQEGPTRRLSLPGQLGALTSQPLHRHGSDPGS
# Beta-galactosidase = Beta-galactosidase (Escherichia coli, UniProt Q8VNN2); experiment: PubChem AID 485352; type: functional
# [7] = target: Intestinal-type alkaline phosphatase (Mus musculus, UniProt P24822); experiment: PubChem AID 488874; type: functional
# [8] = target: T4, Intestinal-type alkaline phosphatase (Homo sapiens, UniProt P09923); experiment: Dose Response confirmation of uHTS hits from a small molecule inhibitors of human intestinal alkaline phosphatase via a luminescent assay. [Related pubchem assays (depositor defined):AID2544, AID2574]; type: functional
# T4 sequence (P09923 whole entry): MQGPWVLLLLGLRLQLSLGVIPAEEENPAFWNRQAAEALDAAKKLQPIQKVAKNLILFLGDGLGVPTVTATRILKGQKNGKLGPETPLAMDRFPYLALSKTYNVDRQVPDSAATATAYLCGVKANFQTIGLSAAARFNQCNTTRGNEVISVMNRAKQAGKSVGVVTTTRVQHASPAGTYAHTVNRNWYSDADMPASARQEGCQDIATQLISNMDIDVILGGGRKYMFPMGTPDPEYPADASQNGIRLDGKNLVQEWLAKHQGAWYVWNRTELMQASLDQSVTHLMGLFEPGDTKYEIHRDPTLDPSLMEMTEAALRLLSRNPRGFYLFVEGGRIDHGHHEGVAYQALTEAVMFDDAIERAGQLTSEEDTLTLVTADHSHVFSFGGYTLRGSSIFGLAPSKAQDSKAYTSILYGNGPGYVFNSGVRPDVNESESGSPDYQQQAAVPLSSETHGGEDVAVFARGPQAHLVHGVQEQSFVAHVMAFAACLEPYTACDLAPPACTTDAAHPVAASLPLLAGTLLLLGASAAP
# [9] = target: T4, Intestinal-type alkaline phosphatase; experiment: human IAP inhibitors, dose response, biochemical, luminescent, uHTS hits, set 2 (AID 488793); type: functional
# [10] = target: Alkaline phosphatase, tissue-nonspecific isozyme (Homo sapiens, UniProt P05186); experiment: inhibition of tissue-nonspecific alkaline phosphatase – biochemical, dose response (AID 488882); type: functional
# [11] = target: UDP-galactopyranose mutase (Mycobacterium tuberculosis, UniProt P9WIQ1); experiment: Inhibitors of Mycobacterium tuberculosis UDP-galactopyranose mutase (UGM) enzyme Measured in Biochemical System Using Plate Reader - 2105-02_Inhibitor_Dose_CherryPick_Activity. [Related pubchem assays (depositor defined):AID504439]
# [12] = target: T5, Type-1 angiotensin II receptor (Homo sapiens, UniProt P30556); experiment: AT1 receptor antagonists, dose response, selectivity assay for APJ receptor antagonist project, cell-based, uHTS hits (AID 463214); type: functional;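 also: antagonist potency against angiotensin II stimulated AT1 response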
# T5 sequence (P30556 whole entry): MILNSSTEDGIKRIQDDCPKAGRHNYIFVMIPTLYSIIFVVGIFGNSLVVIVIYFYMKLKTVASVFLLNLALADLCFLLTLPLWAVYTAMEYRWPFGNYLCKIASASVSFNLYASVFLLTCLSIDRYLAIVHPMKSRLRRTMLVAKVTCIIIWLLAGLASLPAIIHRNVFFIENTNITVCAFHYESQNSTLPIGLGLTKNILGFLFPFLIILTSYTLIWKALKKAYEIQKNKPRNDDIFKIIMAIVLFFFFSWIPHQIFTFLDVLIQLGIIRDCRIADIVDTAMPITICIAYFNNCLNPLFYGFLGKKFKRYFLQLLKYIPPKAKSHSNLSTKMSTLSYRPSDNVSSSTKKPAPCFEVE
# [13] = target: Lysine-specific demethylase 4C (Homo sapiens, UniProt Q9H3R0); experiment: GASC-1 (JMJD2C) histone demethylase inhibitors, dose response, biochemical, DELFIA europium, cherry-picked samples (AID 488835); type: functional
# Sequence of Lysine-specific demethylase 4C (Q9H3R0 whole entry): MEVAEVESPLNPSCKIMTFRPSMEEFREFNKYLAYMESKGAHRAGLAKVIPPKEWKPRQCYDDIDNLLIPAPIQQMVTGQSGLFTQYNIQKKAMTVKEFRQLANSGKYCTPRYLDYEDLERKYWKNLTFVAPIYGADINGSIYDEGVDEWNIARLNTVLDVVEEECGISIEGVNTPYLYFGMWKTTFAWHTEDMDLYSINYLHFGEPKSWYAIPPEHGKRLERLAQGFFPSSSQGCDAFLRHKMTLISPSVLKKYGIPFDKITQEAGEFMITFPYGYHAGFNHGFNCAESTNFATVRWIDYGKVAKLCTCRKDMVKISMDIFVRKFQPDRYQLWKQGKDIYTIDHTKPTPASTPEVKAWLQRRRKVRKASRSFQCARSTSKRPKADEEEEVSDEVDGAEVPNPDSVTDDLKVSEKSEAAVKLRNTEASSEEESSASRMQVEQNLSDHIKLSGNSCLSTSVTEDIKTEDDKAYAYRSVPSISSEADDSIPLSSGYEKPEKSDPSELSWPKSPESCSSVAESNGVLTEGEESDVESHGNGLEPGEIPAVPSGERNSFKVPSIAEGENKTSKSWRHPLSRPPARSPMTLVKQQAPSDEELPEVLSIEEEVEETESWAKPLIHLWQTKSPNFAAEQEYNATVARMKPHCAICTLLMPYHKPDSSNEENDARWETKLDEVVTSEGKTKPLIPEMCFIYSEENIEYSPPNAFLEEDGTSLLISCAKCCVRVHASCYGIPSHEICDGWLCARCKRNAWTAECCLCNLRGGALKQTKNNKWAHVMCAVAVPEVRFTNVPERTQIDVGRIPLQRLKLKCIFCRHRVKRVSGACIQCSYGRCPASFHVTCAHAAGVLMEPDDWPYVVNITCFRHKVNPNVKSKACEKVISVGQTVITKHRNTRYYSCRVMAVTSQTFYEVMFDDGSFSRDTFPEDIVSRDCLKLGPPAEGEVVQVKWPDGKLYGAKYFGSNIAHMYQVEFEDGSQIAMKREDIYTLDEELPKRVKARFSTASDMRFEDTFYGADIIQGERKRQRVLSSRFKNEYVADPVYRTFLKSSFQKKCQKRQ
# [14] = Luminescent dose response cell-based high throughput screening assay for inhibitors of the Janus kinase 2 mutant JAK2V617F. [Related pubchem assays: 1446 (Primary screen.), 1521 (Confirmation assay.), 1486 (Counter screen.)]; type: functional
# HEK293 [15] = experiment: cells; settings: Homo sapiens
# [16] = target: T6, High affinity choline transporter 1 (Homo sapiens, UniProt Q9GZV3); experiment: CHT inhibitors, dose response, cell-based, 5-point CRC, membrane potential dye (AID 504840); type: functional
# T6 sequence (Q9GZV3 whole entry): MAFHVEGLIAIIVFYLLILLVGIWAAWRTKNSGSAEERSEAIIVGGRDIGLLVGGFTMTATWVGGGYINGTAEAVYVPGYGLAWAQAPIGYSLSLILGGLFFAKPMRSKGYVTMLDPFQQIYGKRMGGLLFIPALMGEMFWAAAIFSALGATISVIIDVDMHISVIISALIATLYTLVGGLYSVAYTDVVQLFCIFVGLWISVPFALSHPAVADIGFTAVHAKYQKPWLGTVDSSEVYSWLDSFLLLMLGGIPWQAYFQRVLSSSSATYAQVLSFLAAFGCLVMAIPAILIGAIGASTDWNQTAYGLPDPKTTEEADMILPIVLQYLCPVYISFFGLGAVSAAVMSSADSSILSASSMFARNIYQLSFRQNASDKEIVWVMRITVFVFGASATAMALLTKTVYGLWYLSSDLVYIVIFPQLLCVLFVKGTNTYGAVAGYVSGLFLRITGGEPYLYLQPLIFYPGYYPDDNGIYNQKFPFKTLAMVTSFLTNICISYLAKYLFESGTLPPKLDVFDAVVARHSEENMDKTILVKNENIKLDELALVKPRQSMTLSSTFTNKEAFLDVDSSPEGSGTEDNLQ
# HEK293 [17] = experiment: cells; settings: Homo sapiens; remark: listed apart in the source
# [18] = target: T7, Kappa-type opioid receptor (Homo sapiens, UniProt P41145); experiment: KOR antagonist analogs, beta-arrestin recruitment, SAR follow-up, cell-based, luminescence, set 2 (AID 2495); type: functional
# T7 sequence (P41145 whole entry): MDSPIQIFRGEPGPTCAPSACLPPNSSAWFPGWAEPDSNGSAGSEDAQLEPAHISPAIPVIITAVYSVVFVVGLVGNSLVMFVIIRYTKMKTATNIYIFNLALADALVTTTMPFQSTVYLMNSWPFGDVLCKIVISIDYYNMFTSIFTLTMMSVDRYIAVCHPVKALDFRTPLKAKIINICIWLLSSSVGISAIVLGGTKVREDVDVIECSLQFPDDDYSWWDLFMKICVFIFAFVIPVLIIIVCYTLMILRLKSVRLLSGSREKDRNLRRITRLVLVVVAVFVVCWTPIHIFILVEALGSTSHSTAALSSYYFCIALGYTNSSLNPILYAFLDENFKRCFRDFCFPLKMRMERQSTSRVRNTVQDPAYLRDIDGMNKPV
# [19] = target: T7, Kappa-type opioid receptor; experiment: SAR analysis of Agonists of the Kappa Opioid Receptor (KOR) using an Image-Based Assay - Set 2. [Related pubchem assays (depositor defined):AID1777, AID1786, AID1966, AID2133, AID2136, AID2284, AID2285, AID2359]; type: functional
# [20] = target: T8, Delta-type opioid receptor (Homo sapiens, UniProt P41143); experiment: SAR Analysis of Antagonists of the DOR Receptor using an Image-Based Assay - Set 2. [Related pubchem assays (depositor defined):AID1777, AID1785, AID1786, AID1966, AID2133, AID2136, AID2284, AID2285, AID2357]; type: functional
# T8 sequence (P41143 whole entry): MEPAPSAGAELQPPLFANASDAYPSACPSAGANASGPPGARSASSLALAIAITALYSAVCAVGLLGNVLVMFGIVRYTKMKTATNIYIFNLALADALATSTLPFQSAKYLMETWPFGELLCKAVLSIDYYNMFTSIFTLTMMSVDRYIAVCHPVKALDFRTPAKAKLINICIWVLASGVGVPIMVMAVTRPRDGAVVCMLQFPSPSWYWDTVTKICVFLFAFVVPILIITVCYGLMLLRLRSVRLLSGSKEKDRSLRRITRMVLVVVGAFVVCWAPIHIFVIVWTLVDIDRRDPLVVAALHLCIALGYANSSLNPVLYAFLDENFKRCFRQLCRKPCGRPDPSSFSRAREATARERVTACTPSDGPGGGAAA
# Mu-type opioid receptor [21] = target: T9, Mu-type opioid receptor (Homo sapiens, UniProt P35372); experiment: SAR Analysis of Agonists of the MOR Receptor using an Image-Based Assay - Set 2. [Related pubchem assays (depositor defined):AID1777, AID1785, AID1786, AID1966, AID2133, AID2136, AID2284, AID2285, AID2352]; type: functional
# T9 sequence (P35372 whole entry): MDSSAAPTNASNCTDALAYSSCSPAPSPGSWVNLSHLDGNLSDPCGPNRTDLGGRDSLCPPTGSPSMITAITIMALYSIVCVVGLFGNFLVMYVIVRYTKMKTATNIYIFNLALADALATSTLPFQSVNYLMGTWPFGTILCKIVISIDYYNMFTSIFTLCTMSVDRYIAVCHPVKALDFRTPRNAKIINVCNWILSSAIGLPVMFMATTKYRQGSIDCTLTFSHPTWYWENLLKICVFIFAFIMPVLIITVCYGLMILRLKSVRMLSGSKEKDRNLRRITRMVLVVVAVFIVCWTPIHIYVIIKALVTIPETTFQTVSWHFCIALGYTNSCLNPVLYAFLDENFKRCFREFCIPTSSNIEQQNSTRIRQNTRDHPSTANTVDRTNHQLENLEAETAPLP
# [22] = target: T7, Kappa-type opioid receptor; experiment: SAR analysis of small molecule agonists of the kappa opioid receptor via a luminescent beta-arrestin assay - Set 2. [Related pubchem assays (depositor defined):AID1777, AID1785, AID1786, AID1966, AID2133, AID2136, AID2284, AID449737]; type: functional
# Mu-type opioid receptor [23] = target: T9, Mu-type opioid receptor; experiment: SAR Analysis of Antagonists of the MOR Receptor using an Image-Based Assay - Set 2. [Related pubchem assays (depositor defined):AID1777, AID1785, AID1786, AID1966, AID2133, AID2136, AID2284, AID2285, AID2420]; type: functional
# [24] = target: T7, Kappa-type opioid receptor; experiment: SAR analysis of Antagonists of the Kappa Opioid Receptor (KOR) using an Image-Based Assay - Set 2. [Related pubchem assays (depositor defined):AID1777, AID1785, AID1786, AID1966, AID2133, AID2136, AID2284, AID2285, AID2348]; type: functional
# [25] = target: T8, Delta-type opioid receptor; experiment: SAR Analysis of Agonists of the DOR Receptor using an Image-Based Assay - Set 2. [Related pubchem assays (depositor defined):AID1777, AID1785, AID1786, AID1966, AID2133, AID2136, AID2284, AID2285, AID2370]; type: functional
# [26] = target: T8, Delta-type opioid receptor; experiment: Counterscreen for agonists of heterodimerization of the mu 1 (OPRM1) and delta 1 (OPRD1) opioid receptors: Luminescence-based cell-based high throughput dose response assay to identify agonists of OPRD1 homodimerization. [Related pubchem assays (depositor defined):AID504326, AID504355, AID504692, AID504904, AID504905]; type: functional
# Mu-type opioid receptor [27] = target: T9, Mu-type opioid receptor; experiment: Counterscreen for agonists of heterodimerization of the mu 1 (OPRM1) and delta 1 (OPRD1) opioid receptors: Luminescence-based cell-based high throughput dose response assay to identify agonists of OPRM1 homodimerization.; type: functional
# [28] = target: 5-hydroxytryptamine receptor 5A (Homo sapiens, UniProt P47898); experiment: Counterscreen for agonists of OPRM1-OPRD1 heterodimerization: luminescence-based cell-based high throughput dose response assay to identify agonists of 5-hydroxytryptamine (serotonin) 5A receptor (HTR5A). [Related pubchem assays (depositor defined):AID504326, AID504355, AID504692, AID504904, AID504905]; type: functional
# Sequence of 5-hydroxytryptamine receptor 5A (P47898 whole entry): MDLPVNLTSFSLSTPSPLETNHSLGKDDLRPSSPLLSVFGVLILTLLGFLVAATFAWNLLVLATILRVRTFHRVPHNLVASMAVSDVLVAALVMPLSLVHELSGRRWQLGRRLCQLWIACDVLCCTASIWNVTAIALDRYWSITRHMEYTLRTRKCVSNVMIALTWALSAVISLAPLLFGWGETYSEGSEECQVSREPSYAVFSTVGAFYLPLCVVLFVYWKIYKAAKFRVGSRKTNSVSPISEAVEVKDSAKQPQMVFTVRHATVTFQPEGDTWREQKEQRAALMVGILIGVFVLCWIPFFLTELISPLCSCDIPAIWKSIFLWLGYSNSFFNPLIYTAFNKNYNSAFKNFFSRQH
# NIH3T3 = experiment: cytotoxicity in NIH-3T3 fibroblasts, dose response, cytotoxicity control for antifungal drug resistance project, cell-based, Alamar Blue, fluconazole, dry powder (AID 488809); type: functional; settings: Mus musculus
# Cytochrome P450 2D6 [29] = target: T1, Cytochrome P450 2D6; remark: listed apart in the source
# Cytochrome P450 1A2 = target: T10, Cytochrome P450 1A2 (Homo sapiens, UniProt P05177);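 also: PubChem cytochrome P450 panel assay, CYP1A2 panel member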
# T10 sequence (P05177 whole entry): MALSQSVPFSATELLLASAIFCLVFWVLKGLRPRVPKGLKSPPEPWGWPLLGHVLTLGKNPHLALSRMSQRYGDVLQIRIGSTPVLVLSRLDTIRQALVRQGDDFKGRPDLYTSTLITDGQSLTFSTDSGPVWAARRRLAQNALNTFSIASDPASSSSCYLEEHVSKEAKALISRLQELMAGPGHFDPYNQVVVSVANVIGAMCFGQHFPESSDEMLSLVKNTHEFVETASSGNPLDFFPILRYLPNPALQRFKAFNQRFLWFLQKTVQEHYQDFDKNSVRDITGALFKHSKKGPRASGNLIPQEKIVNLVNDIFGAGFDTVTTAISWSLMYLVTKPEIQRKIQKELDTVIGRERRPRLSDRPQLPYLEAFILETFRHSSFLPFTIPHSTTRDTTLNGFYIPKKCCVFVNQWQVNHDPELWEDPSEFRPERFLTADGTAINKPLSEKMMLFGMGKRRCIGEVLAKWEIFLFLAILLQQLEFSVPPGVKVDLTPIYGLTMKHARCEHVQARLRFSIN
# T1 sequence (P10635 whole entry): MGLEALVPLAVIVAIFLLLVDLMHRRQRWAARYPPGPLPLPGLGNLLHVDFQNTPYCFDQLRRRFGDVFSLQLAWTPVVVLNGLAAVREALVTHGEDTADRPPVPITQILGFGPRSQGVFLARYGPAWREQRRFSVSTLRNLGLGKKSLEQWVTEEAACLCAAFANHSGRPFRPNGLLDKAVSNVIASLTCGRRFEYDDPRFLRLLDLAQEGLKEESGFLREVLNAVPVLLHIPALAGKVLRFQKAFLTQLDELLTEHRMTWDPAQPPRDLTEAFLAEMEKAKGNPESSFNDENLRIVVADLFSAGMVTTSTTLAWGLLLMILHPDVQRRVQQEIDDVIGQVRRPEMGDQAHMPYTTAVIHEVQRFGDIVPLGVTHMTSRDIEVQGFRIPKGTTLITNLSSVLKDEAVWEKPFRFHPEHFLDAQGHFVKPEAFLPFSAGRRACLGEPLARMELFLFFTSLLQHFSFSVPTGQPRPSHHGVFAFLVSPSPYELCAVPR
compound,measurement,setting,value
O=C(O)C1(C(=O)O)CCN(S(=O)(=O)c2ccccc2)CC1,AC50,Cytochrome P450 2D6 [1],inconclusive
C#CCCCCCCCCCCCCCCCCCC,IC50,[2],> 100 µM (not active)
same,IC50,[3],> 100 µM (inactive)
same,IC50,[4],> 100 µM (not active)
same,IC50,[5],> 100 µM (inactive)
Brc1ccc(-c2ccccc2)cc1,AC50,[6],39.8 µM (inconclusive)
CN(C)c1ccc2nc3c(=O)[nH]c(=O)nc-3n(CC(O)C(O)C(O)CO)c2c1 (configuration not stated),EC50,Beta-galactosidase,> 40 µM (inactive)
same,IC50,[7],30.8 µM (active)
same,IC50,[8],14.7 µM (inactive)
same,IC50,[9],34 µM (active)
same,IC50,[10],33 µM (active)
same,AC50,[11],> 500 µM (inactive)
same,IC50,[12],29.1 µM (not active)
CC(=O)Nc1ccc(CN2CCN(c3cccc(C(F)(F)F)c3)CC2)cc1,AC50,[13],24.8 µM (active)
COc1ccc(C2=Nn3c(nnc3C3CCCCC3)SC2)cc1OC,IC50,[14],3.41 µM (active)
same,EC50,HEK293 [15],> 59.6 µM (inactive)
same,IC50,[16],1.74 µM (active)
same,EC50,HEK293 [17],> 59.6 µM (inactive)
Cc1ccc(S(=O)(=O)NCc2ccc(C(=O)NCCCN(Cc3ccccc3)C(C)C)cc2)cc1,IC50,[18],> 20 µM (inactive)
same,EC50,[19],> 32 µM (inactive)
same,IC50,[20],> 32 µM (inactive)
same,EC50,Mu-type opioid receptor [21],> 32 µM (inactive)
same,EC50,[22],> 20 µM (inactive)
same,IC50,Mu-type opioid receptor [23],> 32 µM (inactive)
same,IC50,[24],> 32 µM (inactive)
same,EC50,[25],> 32 µM (inactive)
Cc1ccc(C)c(-n2cc(CNC(C)Cn3cncn3)c(-c3ccccc3)n2)c1 (configuration not stated),EC50,[26],> 92.5 µM (inactive)
same,EC50,Mu-type opioid receptor [27],> 92.5 µM (inactive)
same,EC50,[28],> 92.5 µM (inactive)
CCOC(=O)c1nn(Cc2ccc(Cl)cc2)c2ccccc12,AC50,NIH3T3,39 µM (active)
CS(=O)(=O)O.Cc1ccc(N(CC2=NCCN2)c2cccc(O)c2)cc1 [PHENTOLAMINE MESYLATE],AC50,Cytochrome P450 2D6 [29],3.16 µM (active)
same,AC50,Cytochrome P450 1A2,inactive
